Reference: ChEMBL document CHEMBL5346923, “Novel pyridinium cationic pleuromutilin analogues overcoming bacterial multidrug resistance” (Eur J Med Chem, 2023)
≈ marks a conversion by molar mass, not a printed value. Calls of active or inactive are those of the source. The rule behind the calls is not given here.

Columns and labels:
Staphylococcus aureus [1] = assay: Antibacterial activity against clinical isolate Staphylococcus aureus harbouring erm C gene assessed as inhibition of bacterial growth measured after 24 hrs by MH broth based assay; format: functional
Escherichia coli [2] = assay: Antibacterial activity against clinical isolate Escherichia coli harbouring NDM-17 gene assessed as inhibition of bacterial growth measured after 24 hrs by MH broth based assay; format: functional
Staphylococcus aureus [3] = assay: Antibacterial activity against multi-drug resistant Staphylococcus aureus sa1 infected in BABL/C mouse assessed as reduction in bacterial load in lungs at 40 mg/kg, ip measured after 2 days; format: functional; settings: time 2 day
Enterococcus = assay: Antibacterial activity against vancomycin-resistant Enterococcus ATCC 700221 assessed as inhibition of bacterial growth measured after 24 hrs by MH broth based assay; format: functional
Escherichia coli [4] = assay: Antibacterial activity against Escherichia coli ATCC 25922 assessed as inhibition of bacterial growth measured after 24 hrs by MH broth based assay; format: functional
Staphylococcus aureus [5] = assay: Antibacterial activity against compound-resistant/methicillin-resistant Staphylococcus aureus assessed as inhibition of bacterial growth; format: functional
Staphylococcus aureus [6] = assay: Antibacterial activity against clinical isolate Staphylococcus aureus harbouring ArlS, norA and MgrA gene assessed as inhibition of bacterial growth measured after 24 hrs by MH broth based assay; format: functional
Staphylococcus aureus [7] = assay: Antibacterial activity against multi-drug resistant Staphylococcus aureus sa1 infected in BABL/C mouse assessed as appearance of alveolar septa thickening at 20 to 40 mg/kg, ip; format: functional, organism-based; settings: dose 20-40 mg/kg
Staphylococcus aureus [8] = assay: Antibacterial activity against clinical isolate multi-drug resistant Staphylococcus aureus sal assessed as reduction in log10 CFU at 6 times of MIC measured after 8 hrs by time-kill assay; format: functional
Staphylococcus aureus [9] = assay: Antibacterial activity against methicillin-resistant Staphylococcus aureus ATCC 43300 assessed as inhibition of bacterial growth measured after 24 hrs by MH broth based assay; format: functional
Staphylococcus aureus [10] = assay: Antibacterial activity against Staphylococcus aureus ATCC 29213 assessed as inhibition of bacterial division at 1 to 4 times of MIC by SEM analysis; format: functional, organism-based
Proteus = assay: Antibacterial activity against Proteus CMCC (B) 49027 assessed as inhibition of bacterial growth measured after 24 hrs by MH broth based assay; format: functional
Aerococcus viridans = assay: Antibacterial activity against clinical isolate Aerococcus viridans harbouring optrA and ErmA gene assessed as inhibition of bacterial growth measured after 24 hrs by MH broth based assay; format: functional
Escherichia coli [11] = assay: Antibacterial activity against Escherichia coli MG1655 assessed as inhibition of bacterial growth measured after 24 hrs by MH broth based assay; format: functional
Klebsiella pneumoniae [12] = assay: Antibacterial activity against clinical isolate Klebsiella pneumoniae harbouring blaKpc gene assessed as inhibition of bacterial growth measured after 24 hrs by MH broth based assay; format: functional
Staphylococcus aureus [13] = assay: Antibacterial activity against Staphylococcus aureus ATCC 29213 assessed as inhibition of bacterial growth measured after 24 hrs by MH broth based assay; format: functional
Enterococcus lactis = assay: Antibacterial activity against clinical isolate Enterococcus lactis assessed as inhibition of bacterial growth measured after 24 hrs by MH broth based assay; format: functional
Enterococcus hirae = assay: Antibacterial activity against clinical isolate Enterococcus hirae assessed as inhibition of bacterial growth measured after 24 hrs by MH broth based assay; format: functional
Klebsiella pneumoniae [14] = assay: Antibacterial activity against Klebsiella pneumonia CMCC (B) 46117 assessed as inhibition of bacterial growth measured after 24 hrs by MH broth based assay; format: functional
Streptococcus parasuis [15] = assay: Antibacterial activity against clinical isolate Streptococcus parasuis harbouring InuD gene assessed as inhibition of bacterial growth measured after 24 hrs by MH broth based assay; format: functional
Staphylococcus aureus [16] = assay: Antibacterial activity against multi-drug resistant Staphylococcus aureus sa1 infected in BABL/C mouse assessed as lymphocyte infiltration at 20 mg/kg, ip; format: functional, organism-based
Klebsiella pneumoniae [17] = assay: Antibacterial activity against clinical isolate Klebsiella pneumoniae harbouring mcr-8 gene assessed as inhibition of bacterial growth measured after 24 hrs by MH broth based assay; format: functional
Staphylococcus aureus [18] = assay: Antibacterial activity against clinical isolate Staphylococcus aureus harbouring cfr and erm C gene assessed as inhibition of bacterial growth measured after 24 hrs by MH broth based assay; format: functional
Streptococcus parasuis [19] = assay: Antibacterial activity against clinical isolate Streptococcus parasuis harbouring optrA gene assessed as inhibition of bacterial growth measured after 24 hrs by MH broth based assay; format: functional
Bacillus subtilis = assay: Antibacterial activity against Bacillus subtilis ATCC 6633 assessed as inhibition of bacterial growth measured after 24 hrs by MH broth based assay; format: functional
Staphylococcus aureus [20] = assay: Antibacterial activity against multi-drug resistant Staphylococcus aureus sa1 infected in ip dosed BABL/C mouse assessed as survival rate measured upto 7 days; format: functional; settings: sa1, 168 h, time <= 7 day
Escherichia coli [21] = assay: Antibacterial activity against Escherichia coli MG1655 harbouring acrB gene assessed as inhibition of bacterial growth measured after 24 hrs by MH broth based assay; format: functional
Streptococcus suis = assay: Antibacterial activity against clinical isolate Streptococcus suis harbouring IsaE and ErmA gene assessed as inhibition of bacterial growth measured after 24 hrs by MH broth based assay; format: functional
Staphylococcus aureus [22] = assay: Antibacterial activity against clinical isolate Staphylococcus aureus harbouring IsaE gene assessed as inhibition of bacterial growth measured after 24 hrs by MH broth based assay; format: functional
Staphylococcus aureus [23] = assay: Antibacterial activity against multi-drug resistant Staphylococcus aureus sa1 infected in BABL/C mouse assessed as appearance of congested pulmonary capillaries at 20 mg/kg, ip; format: functional, organism-based
Streptococcus pneumoniae [24] = assay: Antibacterial activity against clinical isolate Streptococcus pneumoniae harbouring ermB gene assessed as inhibition of bacterial growth measured after 24 hrs by MH broth based assay; format: functional
[25] = system: Streptococcus hyovaginalis; assay: Antibacterial activity against clinical isolate Streptococcus hyovaginalis harbouring IsaE and optrA gene assessed as inhibition of bacterial growth measured after 24 hrs by MH broth based assay; format: functional
Staphylococcus aureus [26] = assay: Antibacterial activity against clinical isolate Staphylococcus aureus harbouring cfr gene assessed as inhibition of bacterial growth measured after 24 hrs by MH broth based assay; format: functional
Staphylococcus aureus [27] = assay: Antibacterial activity against multi-drug resistant Staphylococcus aureus sa1 infected in BABL/C mouse assessed as neutrophil infiltration at 20 mg/kg, ip; format: functional, organism-based
Staphylococcus aureus [28] = assay: Antibacterial activity against clinical isolate Staphylococcus aureus harbouring tet38 gene assessed as inhibition of bacterial growth measured after 24 hrs by MH broth based assay; format: functional
[29] = system: Staphylococcus epidermidis; assay: Antibacterial activity against methicillin-resistant Staphylococcus epidermidis ATCC 51625 assessed as inhibition of bacterial growth measured after 24 hrs by MH broth based assay; format: functional
Streptococcus pneumoniae [30] = assay: Antibacterial activity against Streptococcus pneumoniae ATCC 49619 assessed as inhibition of bacterial growth measured after 24 hrs by MH broth based assay; format: functional
Staphylococcus aureus [31] = assay: Antibacterial activity against tiamulin-resistant/methicillin-resistant Staphylococcus aureus assessed as inhibition of bacterial growth; format: functional
Staphylococcus aureus [32] = assay: Antibacterial activity against clinical isolate Staphylococcus aureus harbouring IsaA, cfr and erm A gene assessed as inhibition of bacterial growth measured after 24 hrs by MH broth based assay; format: functional
[33] = system: Streptococcus hyovaginalis; assay: Antibacterial activity against clinical isolate Streptococcus hyovaginalis harbouring ErmB and tetO gene assessed as inhibition of bacterial growth measured after 24 hrs by MH broth based assay; format: functional
Staphylococcus aureus [34] = assay: Antibacterial activity against methicillin-resistant Staphylococcus aureus assessed as resistance development by measuring fold increase in MIC measured after 24 days; format: functional; settings: time 24 day
Staphylococcus aureus [35] = assay: Antibacterial activity against clinical isolate multi-drug resistant Staphylococcus aureus sal assessed as inhibition of bacterial growth; format: functional
Staphylococcus aureus [36] = assay: Antibacterial activity against clinical isolate Staphylococcus aureus harbouring blaZ gene assessed as inhibition of bacterial growth measured after 24 hrs by MH broth based assay; format: functional
Staphylococcus aureus [37] = assay: Antibacterial activity against multi-drug resistant Staphylococcus aureus sa1 infected in BABL/C mouse assessed as survival rate at 40 mg/kg, ip measured upto 7 days; format: functional; settings: sa1, 168 h, time <= 7 day
Staphylococcus aureus [38] = assay: Antibacterial activity against multi-drug resistant Staphylococcus aureus sa1 infected in BABL/C mouse assessed as reduction in bacterial load in lungs at 20 mg/kg, ip measured after 2 days; format: functional; settings: time 2 day

In the case of `C=C[C@]1(C)C[C@@H](OC(=O)CSCCN(CC)CC)[C@]2(C)[C@H](C)CC[C@]3(CCC(=O)[C@H]32)[C@@H](C)[C@@H]1O` [TIAMULIN], the MIC (Staphylococcus aureus [1]) is reported as 32 µg/mL (≈ 64.8 µM), the MIC (Escherichia coli [2]) is reported as 64 µg/mL (≈ 130 µM) and the Activity (Staphylococcus aureus [3]) is reported as 1.94 log10CFU/ml. The MIC (Enterococcus) was 64 µg/mL (≈ 130 µM), the MIC (Escherichia coli [4]) was over 64 µg/mL and the MIC (Staphylococcus aureus [5]) was 1 µg/mL (≈ 2.03 µM). The MIC (Staphylococcus aureus [6]) was 0.5 µg/mL (≈ 1.01 µM), the Activity (Staphylococcus aureus [7]) was “Active” and the Activity (Staphylococcus aureus [8]) was “Active”. For the same compound, the MIC (Staphylococcus aureus [9]) was 0.5 µg/mL (≈ 1.01 µM), the Activity (Staphylococcus aureus [10]) was “Active” and the MIC (Proteus) was over 64 µg/mL. It also gave an MIC (Aerococcus viridans) of 32 µg/mL (≈ 64.8 µM), an MIC (Escherichia coli [11]) of 64 µg/mL (≈ 130 µM) and an MIC (Klebsiella pneumoniae [12]) of 32 µg/mL (≈ 64.8 µM). The MIC (Staphylococcus aureus [13]) was 0.5 µg/mL (≈ 1.01 µM), the MIC (Enterococcus lactis) was 128 µg/mL (≈ 259 µM) and the MIC (Enterococcus hirae) was 8 µg/mL (≈ 16.2 µM). The MIC (Klebsiella pneumoniae [14]) was 16 µg/mL (≈ 32.4 µM), the MIC (Streptococcus parasuis [15]) was 64 µg/mL (≈ 130 µM) and the Activity (Staphylococcus aureus [16]) was “Active”. The MIC (Klebsiella pneumoniae [17]) was 16 µg/mL (≈ 32.4 µM), the MIC (Staphylococcus aureus [18]) was 128 µg/mL (≈ 259 µM) and the MIC (Streptococcus parasuis [19]) was 64 µg/mL (≈ 130 µM). It also gave an MIC (Bacillus subtilis) of 64 µg/mL (≈ 130 µM), an ED50 (Staphylococcus aureus [20]) of 47.5 mg/kg and an MIC (Escherichia coli [21]) of 2 µg/mL (≈ 4.05 µM). For the same compound, the MIC (Streptococcus suis) was 64 µg/mL (≈ 130 µM), the MIC (Staphylococcus aureus [22]) was 128 µg/mL (≈ 259 µM) and the Activity (Staphylococcus aureus [23]) was “Active”. The MIC (Streptococcus pneumoniae [24]) was 32 µg/mL (≈ 64.8 µM), the MIC [25] was 64 µg/mL (≈ 130 µM) and the MIC (Staphylococcus aureus [26]) was 128 µg/mL (≈ 259 µM). The Activity (Staphylococcus aureus [27]) was “Active”, the MIC (Staphylococcus aureus [28]) was 0.25 µg/mL (≈ 0.506 µM) and the MIC [29] was 0.25 µg/mL (≈ 0.506 µM). It also gave an MIC (Streptococcus pneumoniae [30]) of 0.063 µg/mL (≈ 0.128 µM), an MIC (Staphylococcus aureus [31]) of 64 µg/mL (≈ 130 µM) and an MIC (Staphylococcus aureus [32]) of 128 µg/mL (≈ 259 µM). For the same compound, the MIC [33] was 64 µg/mL (≈ 130 µM), the “fold change (FC)” value (Staphylococcus aureus [34]) was 64 and the MIC (Staphylococcus aureus [35]) was 128 µg/mL (≈ 259 µM). For the same compound, the MIC (Staphylococcus aureus [36]) was 0.5 µg/mL (≈ 1.01 µM), the survival at 40 mg/kg (Staphylococcus aureus [37]) was 50% and the Activity (Staphylococcus aureus [38]) was 1.35 log10CFU/ml.
